Test results taken from US12295936B2, “Immunomodulating urea azalides” (Zoetis Services LLC, priority 2020, dated 2025).
Read-outs that look alike come from different tables or passages of the source.

Assays:
IL-1β = test: LPS-stimulated whole bovine blood assay, MSD cytokine detection; assay type: cell-based; conditions: overstimulation of IL-1β, LPS-stimulated bovine whole blood
IL-6 = test: as above; assay type: cell-based; conditions: Bos taurus, read-out: IL-6 (IC50 μM)
Excerpt: In order to correlate RNA sequencing data to cytokine changes the whole blood assay was utilized. […] The enhancement result represents an overall stimulation of cytokine levels due to cellular stress or potential toxicity with increasing concentrations of the compound, representing a typical bell shape response curve for immunomodulatory activity.

[1] = system: BRD pathogens, M. haemolytica and P. multocida; test: MIC screening panel of BRD pathogens (antibacterial / non-antibacterial)
TNF-α = test: LPS-stimulated whole bovine blood assay, MSD cytokine detection; assay type: cell-based; conditions: Bos taurus, read-out: TNF-α (IC50 μM)
[2] = LPS-stimulated bovine whole blood
[3] = read-out: antibacterial / non-antibacterial (MIC for the BRD pathogens)
[4] = read-out: MIC ≤64 μg/mL for at least one of the bacterial strains (flag * at Ex #)

SMILES	IC50 (IL-6; [2]) [µM]	IC50 (TNF-α; [2]) [µM]	IL-1β OS of LPS (IL-1β) [µM]	MIC [1, 3] [µg/mL]	MIC [1, 4] [µg/mL]	IC50 (IL-6) [µM]	IC50 (TNF-α) [µM]
CC[C@H]1OC(=O)[C@H](C)[C@@H](O[C@H]2C[C@@](C)(OC)[C@](O)(CN3CCC(F)(F)CC3)[C@H](C)O2)[C@H](C)[C@@H](O[C@@H]2O[C@H](C)C[C@H](N(C)C(=O)N(C)c3ccccc3)[C@H]2O)[C@](C)(O)C[C@@H](C)CN[C@H](C)[C@@H](O)[C@]1(C)O [Example J-17, 1-((2S,3R,4S,6R)-2-(((2R,3S,4R,5R,8R,10R,11R,12S,13S,14R)-13-(((2R,4R,5S,6S)-5-((4,4-difluoropiperidin-1-yl)methyl)-5-hydroxy-4-methoxy-4,6-dimethyltetrahydro-2H-pyran-2-yl)oxy)-2-ethyl-3,4,10-trihydroxy-3,5,8,10,12,14-hexamethyl-15-oxo-1-oxa-6-azacyclopentadecan-11-yl)oxy)-3-hydroxy-6-methyltetrahydro-2H-pyran-4-yl)-1,3-dimethyl-3-phenylurea]	25	14	40		< 64		
CC[C@H]1OC(=O)[C@H](C)[C@@H](O[C@H]2C[C@@](C)(OC)[C@](O)(CN3CCCCC3)[C@H](C)O2)[C@H](C)[C@@H](O[C@@H]2O[C@H](C)C[C@H](N(C)C(=O)N(C)c3ccccc3)[C@H]2O)[C@](C)(O)C[C@@H](C)CN[C@H](C)[C@@H](O)[C@]1(C)O [Example J-18, 1-((2S,3R,4S,6R)-2-(((2R,3S,4R,5R,8R,10R,11R,12S,13S,14R)-2-ethyl-3,4,10-trihydroxy-13-(((2R,4R,5S,6S)-5-hydroxy-4-methoxy-4,6-dimethyl-5-(piperidin-1-ylmethyl)tetrahydro-2H-pyran-2-yl)oxy)-3,5,8,10,12,14-hexamethyl-15-oxo-1-oxa-6-azacyclopentadecan-11-yl)oxy)-3-hydroxy-6-methyltetrahydro-2H-pyran-4-yl)-1,3-dimethyl-3-phenylurea]			>250		< 64	17	16
CC[C@H]1OC(=O)[C@H](C)[C@@H](O[C@H]2C[C@@](C)(OC)[C@](O)(CN3CCC(c4ccccc4)CC3)[C@H](C)O2)[C@H](C)[C@@H](O[C@@H]2O[C@H](C)C[C@H](N(C)C(=O)N(C)c3ccccc3)[C@H]2O)[C@](C)(O)C[C@@H](C)CN[C@H](C)[C@@H](O)[C@]1(C)O [Example J-20, 1-((2S,3R,4S,6R)-2-(((2R,3S,4R,5R,8R,10R,11R,12S,13S,14R)-2-ethyl-3,4,10-trihydroxy-13-(((2R,4R,5S,6S)-5-hydroxy-4-methoxy-4,6-dimethyl-5-((4-phenylpiperidin-1-yl)methyl)tetrahydro-2H-pyran-2-yl)oxy)-3,5,8,10,12,14-hexamethyl-15-oxo-1-oxa-6-azacyclopentadecan-11-yl)oxy)-3-hydroxy-6-methyltetrahydro-2H-pyran-4-yl)-1,3-dimethyl-3-phenylurea]	9	7	3	> 64			
CC[C@H]1OC(=O)[C@H](C)[C@@H](O[C@H]2C[C@@](C)(OC)[C@](O)(CN3CCC(S(C)(=O)=O)CC3)[C@H](C)O2)[C@H](C)[C@@H](O[C@@H]2O[C@H](C)C[C@H](N(C)C(=O)N(C)c3ccccc3)[C@H]2O)[C@](C)(O)C[C@@H](C)CN[C@H](C)[C@@H](O)[C@]1(C)O [Example J-21, 1-((2S,3R,4S,6R)-2-(((2R,3S,4R,5R,8R,10R,11R,12S,13S,14R)-2-ethyl-3,4,10-trihydroxy-13-(((2R,4R,5S,6S)-5-hydroxy-4-methoxy-4,6-dimethyl-5-((4-(methylsulfonyl)piperidin-1-yl)methyl)tetrahydro-2H-pyran-2-yl)oxy)-3,5,8,10,12,14-hexamethyl-15-oxo-1-oxa-6-azacyclopentadecan-11-yl)oxy)-3-hydroxy-6-methyltetrahydro-2H-pyran-4-yl)-1,3-dimethyl-3-phenylurea]	75	65	20	> 64			

Continued, in another order:

IC50 (IL-6; [2]) [µM]	IC50 (TNF-α; [2]) [µM]	SMILES	IL-1β OS of LPS (IL-1β) [µM]	MIC [1, 3] [µg/mL]	MIC [1, 4] [µg/mL]	IC50 (IL-6) [µM]	IC50 (TNF-α) [µM]
126	34	CC[C@H]1OC(=O)[C@H](C)[C@@H](O[C@H]2C[C@@](C)(OC)[C@](O)(CN3CCCC3)[C@H](C)O2)[C@H](C)[C@@H](O[C@@H]2O[C@H](C)C[C@H](N(C)C(=O)N(C)c3ccccc3)[C@H]2O)[C@](C)(O)C[C@@H](C)CN[C@H](C)[C@@H](O)[C@]1(C)O [Example J-12, 1-((2S,3R,4S,6R)-2-(((2R,3S,4R,5R,8R,10R,11R,12S,13S,14R)-2-ethyl-3,4,10-trihydroxy-13-(((2R,4R,5S,6S)-5-hydroxy-4-methoxy-4,6-dimethyl-5-(pyrrolidin-1-ylmethyl)tetrahydro-2H-pyran-2-yl)oxy)-3,5,8,10,12,14-hexamethyl-15-oxo-1-oxa-6-azacyclopentadecan-11-yl)oxy)-3-hydroxy-6-methyltetrahydro-2H-pyran-4-yl)-1,3-dimethyl-3-phenylurea]	22	> 64			
28	14	CC[C@H]1OC(=O)[C@H](C)[C@@H](O[C@H]2C[C@@](C)(OC)[C@](O)(CN3CC(F)(F)C3)[C@H](C)O2)[C@H](C)[C@@H](O[C@@H]2O[C@H](C)C[C@H](N(C)C(=O)N(C)c3ccccc3)[C@H]2O)[C@](C)(O)C[C@@H](C)CN[C@H](C)[C@@H](O)[C@]1(C)O [Example J-15, 1-((2S,3R,4S,6R)-2-(((2R,3S,4R,5R,8R,10R,11R,12S,13S,14R)-13-(((2R,4R,5S,6S)-5-((3,3-difluoroazetidin-1-yl)methyl)-5-hydroxy-4-methoxy-4,6-dimethyltetrahydro-2H-pyran-2-yl)oxy)-2-ethyl-3,4,10-trihydroxy-3,5,8,10,12,14-hexamethyl-15-oxo-1-oxa-6-azacyclopentadecan-11-yl)oxy)-3-hydroxy-6-methyltetrahydro-2H-pyran-4-yl)-1,3-dimethyl-3-phenylurea]	16	> 64			
99	31	CC[C@H]1OC(=O)[C@H](C)[C@@H](O[C@H]2C[C@@](C)(OC)[C@](O)(Cn3ccnc3)[C@H](C)O2)[C@H](C)[C@@H](O[C@@H]2O[C@H](C)C[C@H](N(C)C(=O)N(C)c3ccccc3)[C@H]2O)[C@](C)(O)C[C@@H](C)CN[C@H](C)[C@@H](O)[C@]1(C)O [Example J-24, 1-((2S,3R,4S,6R)-2-(((2R,3S,4R,5R,8R,10R,11R,12S,13S,14R)-13-(((2R,4R,5S,6S)-5-((1H-imidazol-1-yl)methyl)-5-hydroxy-4-methoxy-4,6-dimethyltetrahydro-2H-pyran-2-yl)oxy)-2-ethyl-3,4,10-trihydroxy-3,5,8,10,12,14-hexamethyl-15-oxo-1-oxa-6-azacyclopentadecan-11-yl)oxy)-3-hydroxy-6-methyltetrahydro-2H-pyran-4-yl)-1,3-dimethyl-3-phenylurea]	100	> 64			
